Assay results from the NIST ThermoML archive (doi:10.1021/acs.jced.8b00554).
“And” between values parts separate entries of the source, which are not always exact repeats. Identical values can stand only once.

Assay: xn = mol fraction of the nth substance listed
Conditions: Liquid, Vibrating tube method

CCCCCCCCC [nonane] + CCCO
mass density
Conditions | 313.15 K | 323.15 K
100 kPa, x2 = 0.1231 | – | 696.08 kg/m3
100 kPa, x2 = 0.2315 | – | 700.11 kg/m3
100 kPa, x2 = 0.3229 | – | 704.16 kg/m3
100 kPa, x2 = 0.4272 | – | 709.94 kg/m3
100 kPa, x2 = 0.7021 | 741.23 kg/m3 | 732.13 kg/m3
100 kPa, x2 = 0.8941 | 766.16 kg/m3 | 757.59 kg/m3
1000 kPa, x2 = 0.7021 | 742.27 kg/m3 | 732.62 kg/m3
1010 kPa, x2 = 0.1231 | – | 696.28 kg/m3
1010 kPa, x2 = 0.2315 | – | 700.63 kg/m3
1010 kPa, x2 = 0.3229 | – | 704.67 kg/m3
1010 kPa, x2 = 0.4272 | – | 710.4 kg/m3
1010 kPa, x2 = 0.8941 | – | 758.12 kg/m3
1020 kPa, x2 = 0.8941 | 767.45 kg/m3 | –
2000 kPa, x2 = 0.1231 | – | 697.28 kg/m3
2000 kPa, x2 = 0.8941 | 768.33 kg/m3 | 759.05 kg/m3
2010 kPa, x2 = 0.2315 | – | 701.62 kg/m3
2010 kPa, x2 = 0.3229 | – | 705.65 kg/m3
2010 kPa, x2 = 0.4272 | – | 711.37 kg/m3
2010 kPa, x2 = 0.7021 | 743.17 kg/m3 | 733.6 kg/m3
3000 kPa, x2 = 0.7021 | 744.09 kg/m3 | –
3010 kPa, x2 = 0.2315 | – | 702.6 kg/m3
3010 kPa, x2 = 0.3229 | – | 706.63 kg/m3
3010 kPa, x2 = 0.4272 | – | 712.36 kg/m3
3010 kPa, x2 = 0.8941 | 769.22 kg/m3 | 760 kg/m3
3020 kPa, x2 = 0.1231 | – | 698.25 kg/m3
3020 kPa, x2 = 0.7021 | – | 734.56 kg/m3
4000 kPa, x2 = 0.2315 | – | 703.57 kg/m3
4000 kPa, x2 = 0.4272 | – | 713.31 kg/m3
4000 kPa, x2 = 0.8941 | – | 760.92 kg/m3
4010 kPa, x2 = 0.1231 | – | 699.22 kg/m3
4010 kPa, x2 = 0.3229 | – | 707.6 kg/m3
4010 kPa, x2 = 0.7021 | 745 kg/m3 | –
4010 kPa, x2 = 0.8941 | 770.09 kg/m3 | –
4020 kPa, x2 = 0.7021 | – | 735.53 kg/m3
5010 kPa, x2 = 0.1231 | – | 700.18 kg/m3
5010 kPa, x2 = 0.2315 | – | 704.52 kg/m3
5010 kPa, x2 = 0.4272 | – | 714.28 kg/m3
5010 kPa, x2 = 0.7021 | 745.89 kg/m3 | 736.47 kg/m3
5010 kPa, x2 = 0.8941 | 770.95 kg/m3 | 761.84 kg/m3
5020 kPa, x2 = 0.3229 | – | 708.55 kg/m3
6000 kPa, x2 = 0.3229 | 689.86 kg/m3 | –
6000 kPa, x2 = 0.8941 | 771.82 kg/m3 | –
6010 kPa, x2 = 0.1231 | – | 701.13 kg/m3
6010 kPa, x2 = 0.2315 | 670.36 kg/m3 | 705.46 kg/m3
6010 kPa, x2 = 0.3229 | – | 709.51 kg/m3
6010 kPa, x2 = 0.4272 | 717.03 kg/m3 | 715.23 kg/m3
6010 kPa, x2 = 0.7021 | – | 737.41 kg/m3
6010 kPa, x2 = 0.8941 | – | 762.78 kg/m3
6020 kPa, x2 = 0.1231 | 666.76 kg/m3 | –
6020 kPa, x2 = 0.7021 | 746.77 kg/m3 | –
7000 kPa, x2 = 0.1231 | 667.99 kg/m3 | –
7000 kPa, x2 = 0.3229 | 691.15 kg/m3 | –
7000 kPa, x2 = 0.8941 | 772.68 kg/m3 | 763.69 kg/m3
7010 kPa, x2 = 0.3229 | – | 710.46 kg/m3
7010 kPa, x2 = 0.7021 | 747.64 kg/m3 | –
7020 kPa, x2 = 0.1231 | – | 702.05 kg/m3
7020 kPa, x2 = 0.2315 | 671.62 kg/m3 | 706.4 kg/m3
7020 kPa, x2 = 0.4272 | 718.27 kg/m3 | 716.18 kg/m3
7020 kPa, x2 = 0.7021 | – | 738.36 kg/m3
8000 kPa, x2 = 0.1231 | 669.23 kg/m3 | –
8000 kPa, x2 = 0.3229 | 692.44 kg/m3 | –
8010 kPa, x2 = 0.3229 | – | 711.38 kg/m3
8010 kPa, x2 = 0.4272 | 719.48 kg/m3 | 717.13 kg/m3
8010 kPa, x2 = 0.7021 | 748.52 kg/m3 | 739.3 kg/m3
8010 kPa, x2 = 0.8941 | 773.53 kg/m3 | 764.6 kg/m3
8020 kPa, x2 = 0.1231 | – | 702.98 kg/m3
8020 kPa, x2 = 0.2315 | 672.88 kg/m3 | 707.34 kg/m3
9000 kPa, x2 = 0.1231 | 670.48 kg/m3 | –
9000 kPa, x2 = 0.2315 | – | 708.26 kg/m3
9000 kPa, x2 = 0.7021 | 749.39 kg/m3 | 740.23 kg/m3
9000 kPa, x2 = 0.8941 | 774.38 kg/m3 | –
9010 kPa, x2 = 0.1231 | – | 703.89 kg/m3
9010 kPa, x2 = 0.3229 | 693.71 kg/m3 | –
9010 kPa, x2 = 0.4272 | 720.71 kg/m3 | 718.05 kg/m3
9020 kPa, x2 = 0.2315 | 674.14 kg/m3 | –
9020 kPa, x2 = 0.3229 | – | 712.32 kg/m3
9020 kPa, x2 = 0.8941 | – | 765.49 kg/m3
10000 kPa, x2 = 0.1231 | – | 704.81 kg/m3
10000 kPa, x2 = 0.8941 | – | 766.39 kg/m3
10010 kPa, x2 = 0.2315 | 675.41 kg/m3 | –
10010 kPa, x2 = 0.3229 | – | 713.24 kg/m3
10010 kPa, x2 = 0.4272 | 721.93 kg/m3 | 718.99 kg/m3
10010 kPa, x2 = 0.7021 | 750.23 kg/m3 | 741.14 kg/m3
10020 kPa, x2 = 0.2315 | – | 709.17 kg/m3
10020 kPa, x2 = 0.8941 | 775.22 kg/m3 | –
11000 kPa, x2 = 0.3229 | – | 714.15 kg/m3
11000 kPa, x2 = 0.8941 | 776.04 kg/m3 | 767.27 kg/m3
11010 kPa, x2 = 0.1231 | 672.98 kg/m3 | 705.72 kg/m3
11010 kPa, x2 = 0.2315 | 676.62 kg/m3 | 710.07 kg/m3
11010 kPa, x2 = 0.4272 | 723.15 kg/m3 | 719.89 kg/m3
11010 kPa, x2 = 0.7021 | – | 742.04 kg/m3
11020 kPa, x2 = 0.3229 | 696.2 kg/m3 | –
11020 kPa, x2 = 0.7021 | 751.07 kg/m3 | –
12000 kPa, x2 = 0.1231 | 674.18 kg/m3 | –
12000 kPa, x2 = 0.3229 | 697.42 kg/m3 | –
12010 kPa, x2 = 0.2315 | 677.87 kg/m3 | –
12010 kPa, x2 = 0.3229 | – | 715.05 kg/m3
12010 kPa, x2 = 0.4272 | 724.32 kg/m3 | –
12010 kPa, x2 = 0.7021 | 751.91 kg/m3 | 742.93 kg/m3
12020 kPa, x2 = 0.8941 | 776.87 kg/m3 | –
13000 kPa, x2 = 0.2315 | 679.08 kg/m3 | –
13000 kPa, x2 = 0.4272 | 725.44 kg/m3 | –
13010 kPa, x2 = 0.1231 | 675.41 kg/m3 | –
13010 kPa, x2 = 0.3229 | 698.65 kg/m3 | –
13010 kPa, x2 = 0.8941 | 777.67 kg/m3 | –
13020 kPa, x2 = 0.7021 | 752.73 kg/m3 | –
14000 kPa, x2 = 0.1231 | 676.57 kg/m3 | –
14010 kPa, x2 = 0.2315 | 680.27 kg/m3 | –
14010 kPa, x2 = 0.3229 | 699.83 kg/m3 | –
14010 kPa, x2 = 0.4272 | 726.63 kg/m3 | –
14010 kPa, x2 = 0.8941 | 778.47 kg/m3 | –
14020 kPa, x2 = 0.7021 | 753.54 kg/m3 | –
15010 kPa, x2 = 0.1231 | 717.43 kg/m3 and 677.73 kg/m3 | –
15010 kPa, x2 = 0.2315 | 681.42 kg/m3 and 721.96 kg/m3 | –
15010 kPa, x2 = 0.3229 | 726.26 kg/m3 | –
15010 kPa, x2 = 0.4272 | 727.76 kg/m3 and 732.14 kg/m3 | –
15020 kPa, x2 = 0.3229 | 700.99 kg/m3 | –
15020 kPa, x2 = 0.7021 | 754.35 kg/m3 | –
15020 kPa, x2 = 0.8941 | 779.28 kg/m3 | –
16000 kPa, x2 = 0.8941 | 780.06 kg/m3 | –
16010 kPa, x2 = 0.2315 | 682.56 kg/m3 and 722.75 kg/m3 | –
16010 kPa, x2 = 0.7021 | 755.14 kg/m3 | –
16020 kPa, x2 = 0.1231 | 718.2 kg/m3 | –
16020 kPa, x2 = 0.3229 | 702.15 kg/m3 and 727.04 kg/m3 | –
16020 kPa, x2 = 0.4272 | 728.86 kg/m3 and 732.94 kg/m3 | –
17000 kPa, x2 = 0.4272 | 729.95 kg/m3 and 733.7 kg/m3 | –
17010 kPa, x2 = 0.1231 | 718.99 kg/m3 | –
17010 kPa, x2 = 0.2315 | 683.64 kg/m3 and 723.54 kg/m3 | –
17010 kPa, x2 = 0.3229 | 727.83 kg/m3 | –
17010 kPa, x2 = 0.7021 | 755.92 kg/m3 | –
17010 kPa, x2 = 0.8941 | 780.82 kg/m3 | –
17020 kPa, x2 = 0.1231 | 679.98 kg/m3 | –
17020 kPa, x2 = 0.3229 | 703.28 kg/m3 | –
18000 kPa, x2 = 0.7021 | 756.69 kg/m3 | –
18010 kPa, x2 = 0.1231 | 719.75 kg/m3 | –
18010 kPa, x2 = 0.2315 | 684.75 kg/m3 and 724.3 kg/m3 | –
18010 kPa, x2 = 0.3229 | 704.37 kg/m3 and 728.61 kg/m3 | –
18010 kPa, x2 = 0.4272 | 734.49 kg/m3 | –
18010 kPa, x2 = 0.8941 | 781.6 kg/m3 | –
18020 kPa, x2 = 0.1231 | 681.03 kg/m3 | –
18020 kPa, x2 = 0.4272 | 731.02 kg/m3 | –
19000 kPa, x2 = 0.2315 | 725.04 kg/m3 | –
19000 kPa, x2 = 0.3229 | 705.41 kg/m3 | –
19000 kPa, x2 = 0.7021 | 757.45 kg/m3 | –
19000 kPa, x2 = 0.8941 | 782.35 kg/m3 | –
19010 kPa, x2 = 0.1231 | 682.1 kg/m3 and 720.5 kg/m3 | –
19010 kPa, x2 = 0.2315 | 685.8 kg/m3 | –
19010 kPa, x2 = 0.4272 | 732.06 kg/m3 | –
19020 kPa, x2 = 0.3229 | 729.37 kg/m3 | –
19020 kPa, x2 = 0.4272 | 735.24 kg/m3 | –
20000 kPa, x2 = 0.1231 | 721.22 kg/m3 | –
20010 kPa, x2 = 0.1231 | 683.05 kg/m3 | –
20010 kPa, x2 = 0.2315 | 686.85 kg/m3 | –
20010 kPa, x2 = 0.4272 | 736 kg/m3 | –
20010 kPa, x2 = 0.7021 | 758.2 kg/m3 | –
20010 kPa, x2 = 0.8941 | 783.1 kg/m3 | –
20020 kPa, x2 = 0.2315 | 725.78 kg/m3 | –
20020 kPa, x2 = 0.3229 | 706.48 kg/m3 and 730.09 kg/m3 | –
20020 kPa, x2 = 0.4272 | 733.04 kg/m3 | –
